Reference: US20080075628A1, “STERILIZED MINOCYCLINE AND RIFAMPIN-CONTAINING MEDICAL DEVICE” (MEDTRONIC, INC., priority 2006, published 2008)
Several values for one entry are separate records, joined by “and”; a condition that tells them apart may be missing. Equal entries are not always repeated. Where two headings read alike, the source gives them in different places.

Conditions: for Recoverable rifampin after sterilization, Post EtO % / Recoverable rifampin after sterilization, Post e-beam % / Recoverable rifampin after sterilization, Post gamma % / Recoverable rifampin after sterilization, Post Steam %: relative to pre-sterilization (100%)
Protocol: Materials and Methods: Minocycline and rifampin were incorporated into discs, sheet stock and silicone boots and subjected to Steam, EtO, gamma radiation and e-beam sterilization as follows:
Each boot was cut into pieces (24) with scissors. The pieces were extracted together in a 60-125 ml jar w/top. All the pieces were placed in jar, and 4:1 THF/ethanol (50 mL for thick boots; 15 mL for thin boots) was added. The pieces were allowed to swell, and the drug is extracted for 1 hour (1st extraction). The extract was then collected and transferred to a 25-100 mL volumetric flask. A second 4:1 THF/ethanol (50 mL for thick boots w/holes; 10 mL for thin boots with holes) extraction was added to the jar, and the transfer pipette was rinsed with this second extract and discarded. The pieces were allowed to swell, and the drug is extracted for 1 hour (2nd extraction). The extract was then collected and transferred to the 25-100 mL volumetric flask containing the first extract. A small amount of extra solvent was needed to make up to volume due to solvent lost to evaporation and polymer swell. This amount also served as a final rinse of both the polymer and the transfer pipette.
Extraction Process—Sheet Stock
Discs was cut from the sheet stock with a die press. The discs were extracted separate in a 1 oz jar w/top. 4:1 THF/ethanol (5 mL) was added. The pieces were allowed to swell, and the drug is extracted for 1 hour (1st extraction). The extract was then collected and transferred to a 10 mL volumetric flask. A second 4:1 THF/ethanol (5 mL) extraction was added to the jar, and the transfer pipette was rinsed with this second extract and discarded. The pieces were allowed to swell, and the drug is extracted for 1 hour. (2nd extraction). The extract was then collected and transferred to the 10 mL volumetric flask containing the first extract. A small amount of extra solvent was needed to make up to 10 mL due to solvent lost to evaporation and polymer swell. This amount also served as a final rinse of both the polymer and the transfer pipette.
After extraction with THF/ethanol 4:1, extract was transferred to an HPLC vial and injected directly. The following high performance liquid chromatography (HPLC) method was used:
1. Chromatographic Conditions: • Instrument: Agilent 1100 stack • Column: Prodigy analytical column (150×4.6 mm) • Detection mode: UV detection at 238 nm • Flow rate: 1.0 mL/min • Column temperature: 25° C. • Injection volume: 10 uL • Mobile phase A: 1.4 g/L dibasic sodium phosphate buffer pH 6.8 • Mobile phase B: ACN 100%

With `CO[C@H]1/C=C/O[C@@]2(C)Oc3c(C)c(O)c4c(O)c(c(/C=N/N5CCN(C)CC5)c(O)c4c3C2=O)NC(=O)/C(C)=C\C=C\[C@H](C)[C@H](O)[C@@H](C)[C@@H](O)[C@@H](C)[C@H](OC(C)=O)[C@@H]1C` [rifampin] the “rifampin remaining with EtO sterilization” value was 46.0-77.5%, the “Recoverable rifampin after sterilization, Post EtO %” value (shortened to “Recoverable rifampin … Post EtO %”) (medium 4735–0.005″ Sheet stock) was 46.0% and the “Recoverable rifampin … Post EtO %” value (medium 4735–0.015″ Sheet stock) was 72.0%. For the same compound, the “Recoverable rifampin … Post EtO %” value (medium 4850–0.005″ Boot) was 65.4%, the “Recoverable rifampin … Post EtO %” value (medium 4850–0.005″ Sheet Stock) was 74.1% and 59.1% and the “Recoverable rifampin … Post EtO %” value (medium 4850–0.015″ Boot) was 77.5%. For the same compound, the “Recoverable rifampin … Post EtO %” value (medium 4850–0.015″ Sheet Stock) was 71.6%, the “Recoverable rifampin after sterilization, Post e-beam %” value (e-beam, medium 4735–0.015″ Boot) was 90.2% and the “Recoverable rifampin after sterilization, Post e-beam %” value (e-beam, medium 4735–0.015″ Sheet stock) was 95.1% and 92.4%. The “incorporated rifampin recovered after e-beam sterilization” value (e-beam, sheet stock, range) was 92.4-95.1%, the “incorporated rifampin recovered after ethylene oxide sterilization” value (ethylene oxide, sheet stock incorporating minocycline and rifampin, range over the media tested) was 46.0-74.1% and the “Recoverable rifampin after sterilization, Post gamma %” value (“Recoverable rifampin … Post gamma %” for short) (gamma radiation, medium 4735–0.005″ Sheet stock) was 81.4%. For the same compound, the “Recoverable rifampin … Post gamma %” value (gamma radiation, medium 4735–0.015″ Sheet stock) was 82.8% and 88.6%, the “Recoverable rifampin … Post gamma %” value (gamma radiation, medium 4850–0.005″ Sheet Stock) was 71.5% and the “Recoverable rifampin … Post gamma %” value (gamma radiation, medium 4850–0.015″ Sheet Stock) was 78.4%. For the same compound, the “incorporated rifampin recovered after gamma radiation” value (gamma radiation, sheet stock, range over the media tested) was 75.1-88.6%, the “Recoverable rifampin after sterilization, Post Steam %” value (from here on “Recoverable rifampin … Post Steam %”) (steam sterilization, medium 4735–0.015″ Sheet stock) was 34.3% and the “Recoverable rifampin … Post Steam %” value (steam sterilization, medium 4850–0.005″ Sheet Stock) was 19.5%. The “Recoverable rifampin … Post Steam %” value (steam sterilization, medium 4850–0.015″ Sheet Stock) was 28.3% and the “rifampin recoverable after steam sterilization” value (steam sterilization, silicone sheet stock, range over the media tested) was 19.5 to 34.3%.

In the case of `CN(C)c1ccc(O)c2c1C[C@H]1C[C@H]3[C@H](N(C)C)C(O)=C(C(N)=O)C(=O)[C@@]3(O)C(O)=C1C2=O` [minocycline], the “Recoverable minocycline remaining after sterilization, Post Steam %” value is reported as 0% and the “minocycline remaining with EtO sterilization” value is reported as 86.8-100%.
